Assay [1] deals with human umbilical vein endothelial cells. As to the kind of experiment: INF-γ HUVEC assay: adherence of PMN to human umbilical vein endothelial cells. It is filed as cell-based. Conditions: HUVECs with INF-γ 1 unit/mL 20 hrs, PMN activated with 50 ng/mL TNF, read-out: IC50 to inhibit adhesion, IFN-γ HUVECS. The text has this: (§1) Several in vitro assays were employed to determine the ability of compounds of the invention to function as anti-inflammatory agents. One group of assays measured the ability of the compounds to inhibit adherence of polymorphonuclear neutrophils to serum coated wells (in the presence of either TNF-α or PAF) or to human umbilical vein endothelial cells (in the presence of INF-γ). Another group of assays measured the ability of the compounds to inhibit the release of elastase or superoxide from activated neutrophils. These assays were performed in the following manner.
(§2) Isolation of PMN: Blood was drawn into syringes containing heparin (1 U/mL), from human volunteers (free of any medication for at least 48 hrs). 30 mL of blood was layered over a gradient of 10 mL 1.077 g/mL Histpaque (Sigma, St. Louis, Mo.), and centrifuged at room temperature, 400×g for 20 min. All subsequent manipulations were carried out at room temperature, with endotoxin free reagents, and using polypropylene pipettes and tubes, to prevent activation of the PMN. The pinkish PMN layer immediately above the RBC was collected and washed 2× with Hank's buffered salt solution with calcium and magnesium, 0.2% glucose, and 10 mM HEPES, pH 7.2 (HBSS++) by centrifugation at 400×g for 10 min. Pellets were suspended in 8 mL 0.9% NaCl, and RBC lysed by the addition of 24 mL water for 40 sec, followed by the addition of 8 mL of 3.6% NaCl. After centrifugation at 200×g for 8 min, RBC ghosts were aspirated from the top of the PMN pellet, and cells washed with HBSS++. PMN adherence to protein substrates: 96 well tissue culture plates were coated with 10% pooled human serum (North American Biological,;, Miami, Fla.) in phosphate buffered saline (PBS) for 1 hr at 37° C., followed by washing 3× with PBS. Test compounds were prepared in DMSO as 100× stocks. PMN (4×10^6 /mL) were preincubated with test compounds for 10 min at 37° C. in serum-coated wells. Tumor necrosis factor (TNF-α) was added to 3 nM or platelet aggregation facor (PAF) to 1 μM, and adherence was carried out for 20 or 10 min, respectively. Nonadherent cells were aspirated, and wells washed two times with warm PBS with calcium and magnesium, with blotting of the inverted plate following each aspiration. Adherent PMN were quantitated using a BCA protein assay (Pierce, Rockford, Ill.).
INF-γHUVEC Assay. Primary human umbilical vein endothelial cells (HUVECs) from Clonetics Corp. (San Diego, Calif.) were seeded at 20,000 cells per wall in a 96 well tissue culture plate that was coated with fibronectin, for 45 min and then twice rinsed with phosphate buffered saline. To the culture media (M199, 80%; FBS, 20%; […] endothelial cell growth factor (Maciag et all, Proc. Natl. Acad. Sci. USA (1979) 76(11):5674-5678), 0.1 mg/mL heparin; 5% CO2; 37° C.) was added INF-γ (R&D Systems) at 1 unit/mL for 20 hrs. Isolated PMNs were loaded with the fluorescent dye BCECF AM (Molecular Probes) by incubating 1×10^7 cells/mL in HBSS with 4 μM dye for 30 min at 37° C. The PMNs were incubated with test compound for 10 min at 37° C., then activated with 50 ng/mL TNF and immediately added to the HUVECs which had been rinsed twice with HBSS+1% human serum. The co-culture plate was incubated at 37° C. for 20 min followed by gentle washing (twice) with HBSS+1% human serum. The extent of adherence was assessed by measuring the amount of fluorescence (485-535 nm filter) in each well with a fluorescence plate reader (Idexx).

For assay [2], the system named is polymorphonuclear neutrophils. In words: Adherence of PMN to serum coated wells, PAF. The class given is cell-based. Conditions: Homo sapiens, Polymorphonuclear neutrophil, 10 min, PAF 1 μM, read-out: IC50 to inhibit adhesion, PAF serum.
Source text: as §1, §2

The subject of assay [3] is neutrophils. In words: Elastase release from neutrophils, PAF. It is filed as cell-based. The note with it: Homo sapiens, Neutrophil; PAF 20 nM, cytochalasin b; read-out: IC50 to inhibit elastase release, PAF/ER.
Source text: as §1
(§3) Elastase release. Neutrophils (5×10^6 /ml in HBSS) were preincubated for 5 min at 37° C. with cytochalasin b (5 μg/ml). Experiments were performed in microtubes (96 per rack) to which were added the cell suspension, test compound (50 nM-500 μM), and one of several activators (fMLP, 200 nM, C5a, 24 nM; PAF, 20nM). After incubation (30 min, 37° C.) the tubes were centrifuged (1 min, 1500 rpm) and the supernatants assayed for elastase activity according to the following protocol:
(§4) Specifically, 10 μl of purified human neutrophil elastase standard or of sample was added to 70 μl or 0.1M Tris pH 7.5, 0.5% Brij detergent and 10 μl or 5 mM elastase substrate (methoxysuccinyl-alanyl-alanyl-prolyl-valyl paranitroanilide) in a 96 well microliter plate. Plates were indubated for 60 min at 37° C. and absorbance was read at 410 nm on a microplate reader. Elastase activity was quantitated relative to standards.

In assay [4] the test system is neutrophils. As to the kind of experiment: Elastase release from neutrophils, fMLP. The class given is cell-based. The note with it: Homo sapiens, Neutrophil; fMLP 200 nM, cytochalasin b; read-out: IC50 to inhibit elastase release, fMLP/ER.
Source text: as §1, §3, §4

The test system of assay [5] is polymorphonuclear neutrophils. As to the kind of experiment: Adherence of PMN to serum coated wells, TNF-α. It is filed as cell-based. The note with it: Homo sapiens, Polymorphonuclear neutrophil, 20 min, TNF-α 3 nM, read-out: IC50 to inhibit adhesion, TNF-α serum.
Source text: as §1, §2

The test system of assay [6] is neutrophil accumulation in the cutaneous Reverse Passive Arthus reaction. As to the kind of experiment: Neutrophil accumulation in the cutaneous Reverse Passive Arthus reaction in rats. The note with it: rat, i.p.; for ED50: Neutrophil, ip, 4 h, Reverse Passive Arthus, read-out: ID50 (the source's name); for Reverse Passive Arthus % Inhibition: 1.4 mg/kg, n = 4. It is filed as in vivo, Male Sprague Dawley rats. The procedure: (§5) Two in vivo models of inflammation were used to assess the anti-inflammatory activity of compounds of the invention. One model measures neutrophil accumulation in thioglycollate-induced peritonitis in mice. The other measures neutrophil accumulation in the cutaneous Reverse Passive Arthus reaction in rats. These assays were carried out as follows.
Male Sprague Dawley rats were treated with test compounds by intraperitoneal injection of 1.4 mg/kg in 1% Tween, pH 9.0 vehicle. After 1 hr, animals were lightly anesthetized with 2% isoflurane, v/v, injected by intravenous route with 1 ml of 5 mg/ml human serum albumin, immediately follwed by intracutaneous administration of 75 μl of a solution of 4 mg/ml of goat anti-human serum albumin. Animals were anesthetized 4 hrs after antigen-antibody treatment. Punch biopsies of the dorsal injection sites were performed with one biopsy weighed for wet/dry weight ratio determination. The remaining two skin biopsies were used for measuring myeloperoxidase content and were minced, weighed and homogenized for 30 sec in 20 mM phosphate buffer (pH 7.4). After centrifugation (20 min, 6000×g, 4° C.) the supernatant was decanted and the pellet resuspended in 50 mM phosphate buffer (pH 6.0) containing 0.5% hexadecyltrimethylammonium bromide. After three freeze/thaw cycles, the pellet was centrifuged (15 min, 20000×g, 4° C.) and 100 μl aliquots were added to 2.9 ml of assay buffer (50 mM phosphate buffer, 0.167 mg/ml o-dianiside, 0.05% H2 O2, pH 6.0). Absorbance at 460 nm was measured at 15 min. Results shown in Table IV were calculated as absorbance units/g dry weight.

The subject of assay [7] is neutrophil accumulation in thioglycollate-induced peritonitis. As to the kind of experiment: Neutrophil accumulation in thioglycollate-induced peritonitis in the mouse. Conditions: mouse, i.v., 4 hrs; for ED50: Neutrophil, iv, thioglycollate-induced peritonitis, read-out: ED50. It is filed as in vivo, Male CF-1 mice. How it is done:
as §5
Male CF-1 mice were pretreated with individual test compound (4-6 mice per compound) 10 min prior to thioglycollate treatment. Test compounds at various doses, solubilized in 1% Tween, pH 9.0, were injected into the tail vein. Thioglycollate (4% Brewer's thioglycollate broth in water) was administered intraperitoneally in 1 ml volume. Peritoneal lavages, performed 4 hrs following thioglycollate treatment, involved injecting 5 ml of Dulbecco's phosphate buffered saline with 0.1% bovine serum albumin and 10 units/ml heparin into the peritoneal cavity, massaging the peritoneum, and then removing fluid through peritoneal aspiration. The lavage fluid was centrifuged, red blood cells lysed with water, cells were resuspended in Hank's balanced salt solution, and leukocytes were counted with a modified Neubauer hemacytometer. Leukocyte preparations (cytospin slides) were differentially stained with a Giemsa stain. Neutrophil accumulation expressed as a percent of control was calculated after the subtraction of baseline neutrophils from all treatement groups (see Table III).

Each structure is given as a SMILES string.

On to `O=C(O)c1ccc(CCc2ccccc2-c2ccccc2)cc1` [NPC 18731, 4-[2-(biphenyl)ethyl]benzoic acid], for which the IC50 came out at 28 µM in assay [1]; 6500 nM in assay [2]; 19.9 µM with neutrophils [3]; 8.7 µM with neutrophils [4]; 6.4 µM in assay [5]. Also, the ED50 was found to be 0.1 mg/kg in assay [6] and 4 mg/kg in assay [7]. Besides, the “Reverse Passive Arthus % Inhibition” value in assay [6] is 40%. In addition, the “% Inhibition of neutrophil accumulation” value in assay [7] (3 mg/kg) is 22%; in assay [7] (10 mg/kg), 44%; in assay [7] (30 mg/kg), 59%; in assay [7] (60 mg/kg), 59%.
With `O=C(O)c1ccc(/C=C/c2ccccc2-c2ccc3ccccc3c2)cc1` [NPC 18812, 4-{2-[2-(2-naphthyl)phenyl]-(E)-ethenyl}benzoic acid], the IC50 in assay [1] came out at 14.5 µM; in assay [2] it was 1170 nM; with neutrophils [3], 7.6 µM; in assay [5] it was 3.6 µM. Moreover, the ED50 in assay [6] was 0.5 mg/kg; in assay [7], 7 mg/kg. Moreover, in assay [6], the “Reverse Passive Arthus % Inhibition” value came to 29%. Moreover, the “% Inhibition of neutrophil accumulation” value in assay [7] (3 mg/kg) was 12%; in assay [7] (10 mg/kg), 50%; in assay [7] (30 mg/kg), 71%; in assay [7] (60 mg/kg), 94%.
For `O=C(O)c1ccc(/C=C/c2ccccc2-c2cc3ccccc3o2)cc1` [NPC 18915, 4-{2-[2-(2-benzofuranyl)phenyl]-(E)-ethenyl} benzoic acid], the IC50 in assay [2] came out at 640 nM.
